Experimental findings from US9895363B2, “Methods for modulating function of proliferating cell nuclear antigen (PCNA) and treating cancer with PCNA-targeting compounds” (University of Cincinnati, priority 2010, dated 2018) are described below.

This assay relates to CT-26 colon cancer cells. Put plainly: Growth inhibition by MTT staining, CT-26. Type of assay: cell-based. The settings on record: CT26; Mouse tumor cells; cell line not given; read-out: IC50 Values, cell line cell blank (first row below UV2237). As to the method:
Growth inhibitory effects of PCNA-I1 and PCNA-I2 were assessed in human cancer cell lines, mouse cancer cell lines, immortalized mouse cell lines, and human primary cell lines. Specifically, growth inhibitory effects of PCNA-I1 and PCNA-I2 were assessed using MTT staining in the following cells lines: 1) human cancer cell lines including LNCaP (androgen receptor […]), 22Rv1, DU-145, LAPC-4, and PC-3 (androgen receptor […]) prostate cancer cells; MCF-7 and T47D breast cancer cells; A375 and MDA-MB435 melanoma cells; 2) mouse cancer cell lines including TRAMP-C2RE3 prostate cancer cells, B16 and K1735 melanoma cells, UV2237 fibrosarcoma cells, and CT-26 colon cancer cells; 3) immortalized mouse lung cell lines and mouse endothelial cell lines; and 4) primary human cell lines including umbilical endothelial cells (HUVEC, PromoCell, Heidelberg, Germany), primary bone marrow mesenchymal stem cells (HuMSC, PromoCell), primary human mammary epithelial cells (HuBrEC, Lonza, Walkersville, Md.), primary human prostate epithelial cells (HuPrEC, Lonza), and primary mouse spleen lymphocytes (isolated in this laboratory), and primary mouse bone marrow stromal cells (isolated in this laboratory). […]
IC50 values were derived from growth inhibition curves. […] Inhibition of cell growth was calculated using the formula: growth inhibition (%)=(1−A570 of treated/A570 of control)×100. […]

For `Cc1ccsc1C(=O)N/N=C/c1ccc2ccccc2c1O` [PCNA-I1], the IC50 worked out at 130 nM.

Usually IC50 stands for the concentration needed to halve the response being measured.
